# Source: patent US12522614B2, “Topical phosphoinositide 3-kinase inhibitors” (VENTHERA, INC., priority 2019, dated 2026)
# Entries after “also recorded” stand apart in the source; their conditions may differ.
# Assays:
# [1] = Human skin permeation from liquid reservoir transdermal patch over 7 days; format: in vitro ADME; details: liquid reservoir patch with Table 11 gel
# Method: Liquid reservoir transdermal patches of FIG. 6 were prepared and used for the study of delivery of Compound 1.002. The transdermal patches were used to deliver Compound 1.002 in vitro through human skin for 7 days from a single patch application. The following gel formulation having composition as shown in Table 11 was prepared according to Example 8 and incorporated into the reservoir patch system.
# Patches using the gel formulation having compositions of Table 11 were prepared in accordance with the process shown in FIG. 7. The patch was 1.8 cm^2 in size containing 0.3 mL of the gel formulation. The backing layer of the patch was Scotchpak® 9723, which is a laminate of polyester and polyethylene commonly used in transdermal patches. The controlling membrane was SOLUPOR® 10P05A, which is a highly porous (up to 90% porous) Ultra High Molecular Weight Polyethylene membrane with controlled pore size. The pressure sensitive adhesive in contact with the human skin was […], which is a non-crosslinked acrylate copolymer with no functional groups.
# Compound 1.002 was confirmed to metabolize to MTPP by estarases as it permeates through the human skin.
# [2] = Viscosity of topical formulation as prepared; format: physicochemical; details: gel formulation of Example 8 (Table 2)
# Method: The liquid excipients, i.e. DMSO, oleic acid, Transcutol® P, and dipropylene glycol were mixed in a 20-mL vial, by vortex agitation. The active ingredient, a compound of formula (I), for example Compound 1.002 was then added, and the vial content was sonicated for 10 minutes to dissolve the compound. […] Hydroxylpropyl cellulose (HPC) was added, and the vial was agitated by vortex for another ten minutes to obtain the gel formulation. The viscosity of the clear gel was measured to be in a range of about 7,000 to 10,000 centipoise (cp).
# A solution formulation was prepared, similar to the gel formulations as described in Example 8, without a thickening agent. The viscosity of the solution was 13.4 cp and it can be used as a topical spray or lotion.
# [3] = Six-month stability study of topical gel formulations including Compound 1.002; format: physicochemical; details: 40° C./75% RH
# Method: Unless otherwise indicated, a HPLC method was used to determine the content of Compound 1.002 and impurities; ASTM D 1544 was used as the standard test method for color of gel formulations; a gas chromatographic method was used to determine the content of oleic acid; and Brookfield viscometer was used to measure viscosity (cP) of gel formulations.
# The gel formulation in HPLC glass vials was subjected to stability study at 40° C./75%0 RH for 6 months. A purity of Compound 1.002 on month 0, 1, 3, and 6 month at 40° C./75% RH was determined by HPLC. The detected impurity of Compound 1.002 appears to be the hydrolysis product, as MTPP. Table 21 represents stability data of Compound 1.002 in the topical formulation having […]. […]
# The gel formulation in Lablabo Amcor Foil 18 mL containers was subjected to stability study at 40° C./75% RH for 6 months. A purity of Compound 1.002 on month 0, 1, 3, 4, 5, and 6 month at 40° C./75% RH was determined by HPLC. The detected impurity of Compound 1.002 appears to be the hydrolysis product, as MTPP. Table 25 represents stability data of Compound 1.002 in the topical formulation having 10% oleic alcohol and 40% DPG. […]
# [4] = In vitro human skin permeation study of topical gel formulations (Franz diffusion cells); format: in vitro ADME
# [5] = Table 20 gel (10% oleic acid, DPG), HPLC glass vials, month 0
# [6] = Table 20 gel (10% oleic acid, DPG), HPLC glass vials, month 1
# [7] = Table 20 gel (10% oleic acid, DPG), HPLC glass vials, month 3
# [8] = Table 20 gel (10% oleic acid, DPG), HPLC glass vials, month 6
# [9] = Table 24 gel (10% oleyl alcohol, 40% DPG), Lablabo Amcor Foil 18 mL containers, month 0
# [10] = Table 24 gel (10% oleyl alcohol, 40% DPG), Lablabo Amcor Foil 18 mL containers, month 1
# [11] = Table 24 gel (10% oleyl alcohol, 40% DPG), Lablabo Amcor Foil 18 mL containers, month 3
# [12] = Table 24 gel (10% oleyl alcohol, 40% DPG), Lablabo Amcor Foil 18 mL containers, month 4
# [13] = Table 24 gel (10% oleyl alcohol, 40% DPG), Lablabo Amcor Foil 18 mL containers, month 5
# [14] = Table 24 gel (10% oleyl alcohol, 40% DPG), Lablabo Amcor Foil 18 mL containers, month 6
# [15] = Study-1, Example 8 gel, human skin, Donor 1, 2 h
# [16] = Study-1, Example 8 gel, human skin, Donor 1, 4 h
# [17] = Study-1, Example 8 gel, human skin, Donor 1, 8 h
# [18] = Study-1, Example 8 gel, human skin, Donor 1, 24 h
# [19] = Study-1, Example 8 gel, human skin, Donor 1, 48 h
# [20] = Study-1, Example 8 gel, human skin, Donor 2, 2 h
# [21] = Study-1, Example 8 gel, human skin, Donor 2, 8 h
# [22] = Study-1, Example 8 gel, human skin, Donor 2, 24 h
# [23] = Study-1, Example 8 gel, human skin, Donor 2, 48 h
# [24] = Study-1, Example 8 gel, human skin, Donor 3, 4 h
# [25] = Study-1, Example 8 gel, human skin, Donor 3, 8 h
# [26] = Study-1, Example 8 gel, human skin, Donor 3, 24 h
# [27] = Study-1, Example 8 gel, human skin, Donor 3, 48 h
# [28] = Study-2, gel saturated at 120 mg/mL, human skin, 2 h
# [29] = Study-2, gel saturated at 120 mg/mL, human skin, 4 h
# [30] = Study-2, gel saturated at 120 mg/mL, human skin, 8 h
# [31] = Study-2, gel saturated at 120 mg/mL, human skin, 24 h
# [32] = Study-2, gel saturated at 120 mg/mL, human skin, 48 h
smiles,measurement,setting,value
"CC(=O)Oc1cccc(-c2nc(N3CCOCC3)c3sccc3n2)c1 [Compound 1.002, 3-(4-Morpholinothieno[3,2-d]pyrimidin-2-yl)phenyl Acetate]",Compound 1.002 metabolized to MTPP after permeating through the human skin,[1],approximately 85%
same,Viscosity of the clear gel,[2],"7,000 to 10,000 centipoise (cp)"
same,Appearance,[3]; [5],"Clear,; also recorded: no crystals"
same,Compound 1.002 Relative Purity,[3]; [5],100.0%
same,Compound 1.002 content,[3]; [5],106.6 mg/mL
same,MTPP (Relative Purity),[3]; [5],0.0%
same,Other impurity (Relative Purity),[3]; [5],0.0%
same,Viscosity,[3]; [5],"11,800 cP"
same,Appearance,[3]; [6],"Clear,; also recorded: no crystals"
same,Compound 1.002 Relative Purity,[3]; [6],98.4%
same,Compound 1.002 content,[3]; [6],106.0 mg/mL
same,MTPP (Relative Purity),[3]; [6],1.2%
same,Other impurity (Relative Purity),[3]; [6],0.4%
same,Viscosity,[3]; [6],"12,600 cP"
same,Appearance,[3]; [7],"Clear,; also recorded: no crystals"
same,Compound 1.002 Relative Purity,[3]; [7],97.5%
same,Compound 1.002 content,[3]; [7],107.0 mg/mL
same,MTPP (Relative Purity),[3]; [7],2.5%
same,Other impurity (Relative Purity),[3]; [7],0.0%
same,Viscosity,[3]; [7],"11,780 cP"
same,Appearance,[3]; [8],"Clear,; also recorded: no crystals"
same,Compound 1.002 Relative Purity,[3]; [8],95.1%
same,Compound 1.002 content,[3]; [8],109.1 mg/mL
same,MTPP (Relative Purity),[3]; [8],4.9%
same,Other impurity (Relative Purity),[3]; [8],0.0%
same,Viscosity,[3]; [8],"12,760 cP"
same,Compound 1.002 Relative Purity,[3]; [9],100%
same,Compound 1.002 content,[3]; [9],65.9 mg/mL
same,MTPP (Relative Purity),[3]; [9],0.0%
same,Visual Appearance,[3]; [9],no crystals
same,Compound 1.002 Relative Purity,[3]; [10],98.9%
same,Compound 1.002 content,[3]; [10],66.5 mg/mL
same,MTPP (Relative Purity),[3]; [10],1.1%
same,Visual Appearance,[3]; [10],no crystals
same,Compound 1.002 Relative Purity,[3]; [11],99.0%
same,Compound 1.002 content,[3]; [11],65.9 mg/mL
same,MTPP (Relative Purity),[3]; [11],1.0%
same,Visual Appearance,[3]; [11],no crystals
same,Compound 1.002 Relative Purity,[3]; [12],97.0%
same,Compound 1.002 content,[3]; [12],66.5 mg/mL
same,MTPP (Relative Purity),[3]; [12],3.0%
same,Visual Appearance,[3]; [12],no crystals
same,Compound 1.002 Relative Purity,[3]; [13],97.3%
same,Compound 1.002 content,[3]; [13],67.8 mg/mL
same,MTPP (Relative Purity),[3]; [13],2.7%
same,Visual Appearance,[3]; [13],no crystals
same,Compound 1.002 Relative Purity,[3]; [14],90.0%
same,Compound 1.002 content,[3]; [14],51.1 mg/mL
same,MTPP (Relative Purity),[3]; [14],10.0%
same,Visual Appearance,[3]; [14],no crystals
same,Effect of oleic acid amount on flux through human skin,"[4]; Example 15, gels with 1%, 2%, 5% and 10% oleic acid, FIG. 13",increases as the increase of the amount of oleic acid
same,Metabolism of Compound 1.002 to MTPP,"[4]; Example 15, gels with 1%, 2%, 5% and 10% oleic acid, human skin",Majority of Compound 1.002 metabolized to MTPP
same,Share of total permeated (MTPP+Compound 1.002) that was Compound 1.002,"[4]; Example 16, three formulations, 24 hour time point",about 10%
same,"Cumulative permeation, Cmpd. 1.002",[4]; [15],0.00 μg/cm^2
same,Hydrolysis of Cmpd. 1.002 to MTPP,[4]; [15],100%
same,"Cumulative permeation, Cmpd. 1.002",[4]; [16],0.00 μg/cm^2
same,Hydrolysis of Cmpd. 1.002 to MTPP,[4]; [16],100%
same,"Cumulative permeation, Cmpd. 1.002",[4]; [17],0.00 μg/cm^2
same,Hydrolysis of Cmpd. 1.002 to MTPP,[4]; [17],100%
same,"Cumulative permeation, Cmpd. 1.002",[4]; [18],13.47 μg/cm^2
same,Hydrolysis of Cmpd. 1.002 to MTPP,[4]; [18],82.9%
same,"Cumulative permeation, Cmpd. 1.002",[4]; [19],85.01 μg/cm^2
same,Hydrolysis of Cmpd. 1.002 to MTPP,[4]; [19],58.5%
same,"Cumulative permeation, Cmpd. 1.002",[4]; [20],0.00 μg/cm^2
same,Hydrolysis of Cmpd. 1.002 to MTPP,[4]; [20],100%
same,"Cumulative permeation, Cmpd. 1.002","[4]; Study-1, Example 8 gel, human skin, Donor 2, 4 h",0.00 μg/cm^2
same,"Cumulative permeation, Cmpd. 1.002",[4]; [21],1.09 μg/cm^2
same,Hydrolysis of Cmpd. 1.002 to MTPP,[4]; [21],87.0%
same,"Cumulative permeation, Cmpd. 1.002",[4]; [22],15.44 μg/cm^2
same,Hydrolysis of Cmpd. 1.002 to MTPP,[4]; [22],83.6%
same,"Cumulative permeation, Cmpd. 1.002",[4]; [23],82.83 μg/cm^2
same,Hydrolysis of Cmpd. 1.002 to MTPP,[4]; [23],59.6%
same,"Cumulative permeation, Cmpd. 1.002",[4]; [24],0.00 μg/cm^2
same,Hydrolysis of Cmpd. 1.002 to MTPP,[4]; [24],100%
same,"Cumulative permeation, Cmpd. 1.002",[4]; [25],0.00 μg/cm^2
same,Hydrolysis of Cmpd. 1.002 to MTPP,[4]; [25],100%
same,"Cumulative permeation, Cmpd. 1.002",[4]; [26],5.18 μg/cm^2
same,Hydrolysis of Cmpd. 1.002 to MTPP,[4]; [26],92.0%
same,"Cumulative permeation, Cmpd. 1.002",[4]; [27],70.87 μg/cm^2
same,Hydrolysis of Cmpd. 1.002 to MTPP,[4]; [27],65.5%
same,Amount of permeated Compound 1.002 metabolized to MTPP,"[4]; Study-1 and Study-2, human skin, first 24-hour period",82%-100%
same,"Cumulative permeation, Cmpd. 1.002",[4]; [28],0.00 μg/cm^2
same,Hydrolysis of Cmpd. 1.002 to MTPP,[4]; [28],100%
same,"Cumulative permeation, Cmpd. 1.002",[4]; [29],0.00 μg/cm^2
same,Hydrolysis of Cmpd. 1.002 to MTPP,[4]; [29],100%
same,"Cumulative permeation, Cmpd. 1.002",[4]; [30],0.00 μg/cm^2
same,Hydrolysis of Cmpd. 1.002 to MTPP,[4]; [30],100%
same,"Cumulative permeation, Cmpd. 1.002",[4]; [31],0.00 μg/cm^2
same,Hydrolysis of Cmpd. 1.002 to MTPP,[4]; [31],100%
same,"Cumulative permeation, Cmpd. 1.002",[4]; [32],78.10 μg/cm^2
same,Hydrolysis of Cmpd. 1.002 to MTPP,[4]; [32],83.9%
same,Permeation through human skin relative to MTPP,"[4]; Study-3, saturated gel formulations, 48 hour period, FIG. 4",about 6 times
